The record followed here is patent publication US20260373497A1, “MOLECULAR MACHINES STIMULATE INTERCELLULAR CALCIUM WAVES AND CAUSE MUSCLE CONTRACTION” (William Marsh Rice University, priority 2022, published 2026).

The structures appear in SMILES notation. “Also recorded” adds a separate entry of the source.

Series [1] in a line: MM rotation rate (thermodynamics of the thermal helix inversion step). The series is classed as physicochemical. As to conditions: Table 1; from thermodynamics of thermal helix inversion. The method, then: Table 1. Properties of MM 1-4. Partition coefficients and total polar surface area were calculated using the molInspiration online calculator. milogP represents the logarithm of the partition coefficient between octanol and water, used to represent hydrophobicity (higher values are more hydrophobic). Rotation rates were provided using the thermodynamics of the thermal helix inversion step. MM structures provided for reference.
Effects of Rotation Speed and Directionality: The propensity for unidirectional MM to rotate and exert mechanical force on their environment depend principally on two factors: the rotation rate and the photoconversion efficiency. Both of these depend on MM structure. The rotation rate is determined by the half-life of the thermal helix inversion, which is driven by the steric interactions governing the passage of the rotor over the stator (Pollard et al., 2007). The photoconversion efficiency, also known as the quantum yield of photoisomerization, or ΦP, represents the proportion of photons absorbed by the molecule that drive molecular rotation (as opposed to fluorescence or non-radiative decay processes). ΦP is primarily influenced by the electronic structure. MM directionality can also be influenced by structure, as the driving force for unidirectional rotation depends upon the presence of a stereogenic center.

A short description of series [2]: UV-Vis absorbance of motors in DMSO. The series is classed as physicochemical. The source says: The UV-Vis spectrum of each motor was also acquired in DMSO (FIG. 37D) to ensure that the difference in absorbance at 400 nm was not the cause of larger or smaller responses.
Series [3] relates to HEK293 cells. Briefly: MM-induced intracellular calcium responses (Fluo-4) after 400 nm stimulation. The series is classed as cell-based. On the procedure: To investigate cellular responses to the actuation of MM, live-cell calcium tracking were employed. HEK293 cells were treated with the fluorescent intracellular calcium indicator Fluo-4 and loaded with MM. The structures of the MM employed in this study are shown in FIG. 1B, and the calcium responses of cells treated with fast-rotating MM 1 are shown in FIG. 1C. […] In the presence of the vehicle only, no calcium responses were evoked by the same laser treatment (FIG. 2).
Cell Culture and Preparation of Cells for Microscopy: HEK293 cells were chosen as the principal model system due to their prevalence in electrophysiological interrogation. […] HEK293 cells, HeLa cells, and N2A cells were cultured in DMEM (10% FBS, 1% penicillin/streptomycin) and passaged at <90% confluence. To grow cardiomyocytes, a dissColved rat heart (TransnetYX©) was triturated, centrifuged, and resuspended in cardiomyocyte growth medium (TransnetYX© catalog #SKU-NBCG) and seeded at a concentration of 60,000 cells cm^−2. Growth substrates were pre-treated with 1% gelatin solution for 3 h, then washed with PBS. Cardiomyocytes were allowed to grow for 4 days, after which the growth medium was exchanged for cardiomyocyte maintenance medium (TransnetYX© catalog #SKU-NBCM). Experiments were conducted from day 4 to day 6.
Imaging was conducted in imaging extracellular buffer (iECB; 119 mM NaCl, 5 mM KCl, 10 mM HEPES, 2 mM CaCl2, 1 mM MgCl2 (pH 7.2); 320 mOsm). Imaging in calcium-free medium was conducted in phosphate-buffered saline. Cells were prepared for imaging by seeding a 35 mm Ibidi imaging dish with ~50,000 cells in 1 mL of DMEM, and grown at 37 °C, 5% CO2 for 2 days. Prior to imaging, cells were incubated with dyes and/or molecules resuspended in complete growth medium at the appropriate concentration (MM 1 (8 μM), MM 2 (8 μM), MM 3 (24 μM), MM 4 (8 μM), Fluo-4 (2 μM)). MM and Fluo-4 were loaded into cells for 45 min. Cells treated with thapsigargin were exposed for 30 min after MM and Fluo-4 loading. Cells treated with organelle-targeting dyes were exposed for 5 min after MM loading. Ruthenium red and Gd^3+ were included in the imaging medium during stimulation and were associated with cells for 10 min prior to imaging. At the end of incubation, this medium was replaced with the iECB. Unless otherwise specified, all experiments were replicated in triplicate.
In Vitro Imaging and Stimulation: Cells were loaded in a Nikon A1-Rsi confocal system mounted on a widefield Ti-E fluorescence microscope. Imaging was conducted using a 60× water immersion objective (NA of 1.27, 0.17 mm working distance). Green fluorophores (Fluo-4, MitoTracker Green) were excited using a 488 nm photodiode laser. Red fluorophores (ER-Tracker-Red, PI) were excited using a 561 nm photodiode laser. Deep red fluorophores (cellMask plasma membrane stain) were excited using a 630 nm photodiode laser. Laser stimulation for in vitro experiments was performed with a 400 nm photodiode laser (Coherent OBIS™ LX SF) operating in a fluorescence-recovery-after-photobleaching (FRAP) experiment mode, delivering up to 6.4×10^2 W cm^−2 at sample level. Unless otherwise specified, all experiments were conducted using a stimulus irradiance of 3.2×10^2 W cm^−2. Cardiomyocyte experiments were conducted using a stimulus irradiance of 5.1×10^2 W cm^−2. Power was calibrated using a Thor Labs S130C laser power meter. Stimulation was targeted to a circular area of diameter 5 μm in a 250 ms pulse, during which the laser rasters across the entire region of interest. […] Fluo-4 fluorescence was collected for 30 s before and 2 min after stimulation. Images were collected using a Galvano scanner operating at 0.94 fps. In selected experiments, images were also collected using a resonant scanner operating at 7.7 fps.
Data Analysis—In Vitro: Data were analyzed using custom-written Python scripts. Fluorescence traces of calcium indicator Fluo-4 from cells were imported and processed via the Pandas library. […]

Series [4] deals with C2C12 myoblasts. Briefly: MM-induced calcium release in C2C12 cells (Fluo-4). The series is classed as cell-based, mouse. As to conditions: for Calcium release in C2C12 myoblasts: light for 500 ms, MM 1 8 μM. The source says:
FIGS. 36A-36D—MMs cause intracellular calcium waves in C2C12 myoblasts, a) MM 1 (unidirectional, ~3 MHz) structure showing rotor and stator. b) Rotation cycle of a MM. c) Confocal microscope images of C2C12 myoblasts with MM and labeled with Fluo-4. Stimulated areas are indicated by the red arrows immediately before stimulation and 10 s after stimulation. Scale bar=30 μm. d) Average normalized fluorescence intensity trace of stimulated C2C12 cells myoblasts treated with either DMSO (n=6) or MM 1 (n=7) and stimulated with 400-nm laser light for 500 ms. Laser stimulation is shown by the cyan line.
Fluo-4 is an intracellular calcium dye that fluoresces green when binding to calcium and is commonly used to observe intracellular calcium spikes in many cell types.
C2C12 cells will undergo differentiation from myoblasts to multinucleated myotubes when allowed to grow to confluence. This process occurs over the course of several days and can be sped up by replacing normal growth media with low serum differentiation media (Jang et al., 2022). The responsiveness of C2C12 cells to MM stimulation changes was tracked as they went through the process of growth and differentiation (FIG. 39). When plated on the first day, the cells are in low confluency, and show clear morphology of myoblasts. The cells reach around 100% confluency on day 4 (FIG. 39A), at which point they begin to differentiate to form the myotubes. They show lowest uptake of Fluo-4 and nearly no responses. After about 9 days of growth in regular growth media, myotubes begin to form, which have a fibrous, striated and multinucleated appearance, and the uptake of Fluo-4 could be observed again.

Where [5] appears, read: 8 μM MM, 400 nm, 3.2×10^2 W cm^−2, 250 ms.

With `CC1Cc2ccc3ccccc3c2C1=C1c2ccccc2Sc2cc(NCCN(C)C)ccc21` (stereo not shown) [MM 1], the “Rotation rate” value in series [1] is 3 × 10^6 Hz. In series [2], the “Absorbance at 400 nm” value is reported as “nearly identical absorbances at 400 nm”. In series [3] (setting [5]), the “Intracellular calcium response (Fluo-4)” value is given as “increased Fluo-4 fluorescence in the targeted cell; also recorded: elicited rapid increases in intracellular calcium; also recorded: elicited the strongest signaling responses in vitro”. Besides, in series [3] (8 μM, 400 nm light, 250 ms), the “Decay kinetics of calcium response” value is given as “decayed over the next minute”. Besides, the “Time to peak of calcium transient after stimulation” value in series [3] (8 μM, 400 nm light, 250 ms) lay within 10 to 20 s. For the same compound, in series [3] (3.2×10^2 W cm^−2, 250 ms, multiple stimulations), the “Repeatability of calcium responses” value is recorded as “repeatable”. Further, the “Light power dependence of calcium response” value in series [3] (250 ms pulse, 5 μm diameter) was “higher response amplitude at higher irradiance”. In addition, the “Propagation of calcium response to adjacent cells” value in series [3] (MM 1, 400 nm light) is “Calcium responses were observed to propagate to adjacent cells”. Moreover, the “Signal amplitude compared with other MM” value in series [3] (MM 1 vs MM 2) is listed as “reached a higher amplitude than those elicited by MM 2”. The “Calcium release with scavenger combination” value in series [4] (MM 1 + light, with thiourea-containing scavenger combination (1× and 0.2×)) is on record as “without changing the magnitude of calcium release”. The “Responsiveness to MM stimulation during differentiation” value in series [4] (MM 1, day 1 to day 3) is listed as “slight decrease of the responsivity from day 1 to day 3”; in series [4] (MM 1, day 4 to day 8), “lose their responsiveness to MM stimulation”; in series [4] (MM 1, day 9), “increase in responsiveness to MM stimulation”. Also, the “Calcium release at lower laser power” value in series [4] (MM 1, lower laser powers) was “lower calcium release”. Also, in series [4], the “Calcium release in C2C12 myoblasts” value is “robust intracellular calcium release; also recorded: calcium transients several times larger in magnitude than MM 2”.
For the compound `CC1Cc2cc(NCCN(C)C)c3ccccc3c2C1=C1c2ccccc2-c2ccccc21` (stereo not shown) [MM 3], the “Rotation rate” value in series [1] was determined as 0.1 Hz. For the same compound, the “Absorbance at 400 nm” value in series [2] is on record as “much smaller absorbance”. Further, the “Intracellular calcium response (Fluo-4)” value in series [3] (MM 3 at 24 μM, 6.4×10^2 W cm^−2) is “elicited no change in calcium activity upon irradiation; also recorded: did not elicit any noticeable responses in vitro”. For the same compound, the “Calcium release at 3 times higher concentration” value in series [4] (MM 3, 3×) is listed as “no measurable increase in calcium release”. For the same compound, the “Calcium release in C2C12 myoblasts” value in series [4] is given as “did not induce any calcium release”.
With `CN(C)CCNc1ccc2c(c1)Sc1ccccc1C2=C1CCc2ccc3ccccc3c21` [MM 4], the “Rotation rate” value in series [1] is reported as 3 × 10^6 Hz. In addition, the “Intracellular calcium response (Fluo-4)” value in series [3] (setting [5]) is “elicited only small changes in calcium concentration; also recorded: elicited inconsistent and weak responses”.
